Data as given in publication PMC7066135, “The lipoprotein Pal stabilises the bacterial outer membrane during constriction by a mobilisation-and-capture mechanism” (Nature Communications, 2020).
Ends that are not written are not given here. Peptide text beside a SMILES is read from it. * marks the point of attachment. FITC = O=C1OC2(c3ccc(O)cc3Oc3cc(O)ccc32)c2ccc(NC(=S)*)cc21

Columns and labels:
[1] = tested on: Pal-mCherry in E. coli cells; test: Fluorescence recovery after photobleaching (FRAP) of Pal-mCherry; format: cell-based; settings: non-dividing cells, average from 30 cells
Method: Overnight supplemented M9-glucose (2 mM MgSO4, 0.1 mM CaCl2, 0.4% (w/v) D-glucose) cultures were diluted in fresh medium with appropriate antibiotics and IPTG for strains expressing TolA from plasmids. Cultures were grown at 37 °C to OD600 0.3. Cells were centrifuged at 7000 × g for 1 min, resuspended in 1 ml of fresh media and treated with CCCP (0.1 mM, RT for 5 min, Sigma #C2759) for PMF decoupling, sodium azide (50 µg ml^−1, RT for 30 min, Sigma #S2002) for ATPase inhibition or chloramphenicol (30 µg ml^−1, 37 °C for 30 min, Sigma #C0378) for translation inhibition. […]
Microscopy was performed on a Zeiss LSM 880/Axio Examiner Z1 motorised upright laser scanning microscope equipped with Argon multiline 458/488/514 nm (25 mW), and HeNe 561 nm (1 mW) and ×63 oil-immersion objective (Zeiss, NA 1.4) set to 37 °C. […] Two images were acquired before bleaching and ten images, with a time interval of 1 min, recorded after bleaching using an automatic time-course function. […] For all fluorescent images, corresponding differential interference contrast (DIC) images were recorded using transmitted light. All images were recorded using Zeiss Zen 2011 software.
All images were analysed using ImageJ software. Fluorescence distribution along x-axis of cells was determined by the plot profile function with a line width of 4 points for TIRFM images and 40 or 80 for FRAP images. […]

[2] = target: T1, C-terminal domain of wild-type TolA (Pseudomonas aeruginosa, UniProt P50600); test: Stopped-flow fluorescence anisotropy, wild-type TolA; format: binding, P. aeruginosa
T1 construct: The C-terminal domain of Pseudomonas aeruginosa TolA (TolA^224–347) and its derivatives; His-tagged Im9 (fusion partner, factor Xa site) (N, cleaved yes); made in house; host or cells: E. coli BL21 (DE3)
Method: (§1) Experiments were conducted on an Applied Photophysics SX20 instrument set up for 1:1 single mixing and thermostated using a circulating water bath at 25 °C. All stopped-flow experiments were carried out in 50 mM Tris pH 7.0, 100 mM NaCl and under pseudo-first-order conditions. […] Monochromator entrance and exit slits were set to 2 mm. A total of 4000–10,000 data points were collected for each reaction. At least four anisotropy traces were collected for each reaction and averaged for each time-dependence fit. All anisotropy traces were fit to a single exponential rate equation. Each reaction concentration was collected in triplicate and validated using recombinant protein from different protein purifications. SigmaPlot was used for linear regression analysis to fit the dependence of kobs on the varied concentration of TolA. Titrations were performed at increasing concentration of protein relative to a constant concentration of peptide at 1 μM. Experiments were typically performed with 4–10-s data collection periods.
(§2) of mutations in vitro and in vivo. All in vitro measurements used the P. aeruginosa complex while all in vivo assays
(§3) binding a 100-fold excess of the C-terminal domain of wild-type TolA (red) and TolA with its C-terminal α-helix removed
(§4) tion yielding an observed rate (kobs). […]

[3] = target: T2, TolA224-344 lacking its short C-terminal α-helix (Pseudomonas aeruginosa, UniProt P50600); test: Fluorescence anisotropy titration, FITC-labelled TolB peptide, helix-truncated TolA; format: binding, P. aeruginosa; settings: versus wild-type TolA224-347
T2 construct: Open symbols, TolA224-344 lacking its short; His-tagged Im9 (fusion partner, factor Xa site) (N); made in house; host or cells: E. coli BL21 (DE3)
Method: Fluorescence anisotropy experiments were used to observe the change in overall anisotropy of P. aeruginosa TolB^22–34 fluorescein isothiocyanate (FITC) in complex with the C-terminal domain of TolA. A titration curve was recorded using 40 μl fractions in a 96-well, black absorbent, 100 μl plate, n = 3.
Experiments were carried out using either a CLARIOstar plate reader or a Fluoromax- 4 spectrofluorimeter (Horiba JobinYvon). Titrations were carried out between 0 and 1.2 mM TolA. […] FITC excitation wavelength used was 495 nm with an emission wavelength at 519 nm. All experiments were conducted in 50 mM Tris 100 mM NaCl pH 7.0 and used light-blocking tubes to minimize quenching.
(§5) Data were fitted using the manufac-turer ’s software assuming a 1:1 binding model, validated by the resulting structure for the complex. From three independent measurements, average values for ΔH […] (±0.24 standard deviation (SD)) kcal.mol-1, ΔS +11.8 (±2.14 SD) cal.K-1 […]
(§6) form of an isolated peptide. b, Binding of TolB22-34 to the C-terminal domain of 15N-labelled TolA224-347 from P. aeruginosa followed by changes in 1H, 15N-HSQC spectra, >80% of all TolA peaks were perturbed by TolB22-33 binding. Every peak was […]
(§7) and free (32%) TolA. […]
(§8) five-fold weaker binding than the E. coli complex. c, Fluorescence anisotropy binding curves for P. aeruginosa TolB22-33 binding the C-terminal domain of TolA. […]

[4] = target: T3, TolA with its C-terminal α-helix removed (Pseudomonas aeruginosa, UniProt P50600); test: Stopped-flow fluorescence anisotropy, helix-truncated TolA; format: binding, P. aeruginosa
T3 construct: Open symbols, TolA224-344 lacking its short; His-tagged Im9 (fusion partner, factor Xa site) (N); made in house; host or cells: E. coli BL21 (DE3)
Method: as §1, §2, §3, §4

[5] = target: T4, TolA224-347 (Pseudomonas aeruginosa, UniProt P50600); test: NMR titration (1H,15N-HSQC), TolB peptide binding 15N-labelled TolA; parameters: species or system P. aeruginosa; settings: 1H,15N-HSQC spectra; slow chemical exchange
T4 construct: The C-terminal domain of Pseudomonas aeruginosa TolA (TolA^224–347) and its derivatives; His-tagged Im9 (fusion partner, factor Xa site) (N, cleaved yes); made in house; host or cells: E. coli BL21 (DE3)
Method: NMR experiments were carried out using spectrometers operating at ^1H frequencies ranging from 500 to 950 MHz. The spectrometers were equipped with Oxford Instruments magnets and home-built triple-resonance pulsed-field gradient probes (600, 750 and 950 MHz) or with Bruker Avance consoles and TCI CryoProbes (500 and 600 MHz). NMR data were acquired using either GE/Omega software using pulse sequences written in-house, or Topspin software and pulse sequences in the Topspin libraries from Bruker Biospin. All data processing was conducted using NMRPipe[49]. Processed spectra were visualized and assigned using the CCPN software suite. All NMR data were collected at 20 °C.
as §5, §6, §7, §8

[6] = target: E. coli TolB22-33 peptide; test: ITC
[7] = target: P. aeruginosa TolB^22–34 fluorescein isothiocyanate (FITC) (P. aeruginosa) (UniProt P50601); test: FP
[8] = target: Pal (Escherichia coli) (UniProt P0A912); settings: cited from earlier work
[9] = target: TolA (Escherichia coli) (UniProt P19934); settings: cited from earlier work
[10] = tested on: TolA-GFP at the divisome; test: 3D-SIM of TolA-GFP recruitment to the divisome; format: cell-based, E. coli; settings: TolB I25A, I27A background versus wild-type TolB, expressed from plasmid; n = 30; Mann-Whitney U and t test
From the text: Live bacteria were mounted between an agarose pad and a coverslip. Imaging was processed at room temperature with a ×60, NA 1.42 oil objective on a Deltavision OMX V3 Blaze (GE) equipped with a 488 laser. Image stacks of several μm thickness were taken with 0.125 μm z-steps and 15 images (three angles and five phases per angle) per z-section and a 3D-structured illumination with stripe separation of 213 nm. Laser power was set at 10% to scan the sample over 4 µm thickness (32 slices) without too much photobleaching. Image stacks were reconstructed using Deltavision softWoRx 6.1.1 software with a Wiener filter of 0.002 using wavelength-specific experimentally determined OTF functions (see ref. [37]). […] Distribution of fluorescence intensity along the x-axis of bacteria was determined using a custom script implemented in MATLAB (version 2012a, MathWorks) (see ref. [40]). […] Intensity along the selected bacteria was measured 11 times between the bacterial end-points, each at a uniformly spaced offset from the bacterial long axis. The mean profile was calculated and normalized to the range 0–100 for comparison between bacteria. Diameter measurements correspond to the height of ring, calculated automatically through ImageJ software from each reconstructed and filtered image. A total of 30 cells were analysed per condition, in triplicate. […]

[11] = target: T5, C-terminal domain of Pseudomonas aeruginosa TolA (TolA^224–347) (Pseudomonas aeruginosa, UniProt P50600 224-347); test: FP
T5 chain: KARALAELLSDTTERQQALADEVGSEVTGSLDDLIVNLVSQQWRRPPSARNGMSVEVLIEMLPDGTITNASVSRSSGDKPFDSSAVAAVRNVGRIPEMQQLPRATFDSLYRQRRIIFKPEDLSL

[12] = target: T5, C-terminal domain of Pseudomonas …; test: NMR

TolB, sequence (P0A855 22-430): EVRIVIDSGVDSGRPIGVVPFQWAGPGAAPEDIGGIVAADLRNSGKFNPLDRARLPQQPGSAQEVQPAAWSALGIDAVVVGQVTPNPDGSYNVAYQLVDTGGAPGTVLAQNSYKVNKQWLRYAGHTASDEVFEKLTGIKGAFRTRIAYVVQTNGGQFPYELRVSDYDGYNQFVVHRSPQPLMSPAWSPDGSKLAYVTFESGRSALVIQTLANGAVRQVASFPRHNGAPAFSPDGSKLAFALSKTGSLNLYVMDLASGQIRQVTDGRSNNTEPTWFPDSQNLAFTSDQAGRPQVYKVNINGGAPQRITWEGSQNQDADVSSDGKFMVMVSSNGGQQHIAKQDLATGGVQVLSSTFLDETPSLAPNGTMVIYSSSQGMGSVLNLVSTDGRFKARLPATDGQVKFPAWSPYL
TolA (Escherichia coli), sequence (P19934 whole entry): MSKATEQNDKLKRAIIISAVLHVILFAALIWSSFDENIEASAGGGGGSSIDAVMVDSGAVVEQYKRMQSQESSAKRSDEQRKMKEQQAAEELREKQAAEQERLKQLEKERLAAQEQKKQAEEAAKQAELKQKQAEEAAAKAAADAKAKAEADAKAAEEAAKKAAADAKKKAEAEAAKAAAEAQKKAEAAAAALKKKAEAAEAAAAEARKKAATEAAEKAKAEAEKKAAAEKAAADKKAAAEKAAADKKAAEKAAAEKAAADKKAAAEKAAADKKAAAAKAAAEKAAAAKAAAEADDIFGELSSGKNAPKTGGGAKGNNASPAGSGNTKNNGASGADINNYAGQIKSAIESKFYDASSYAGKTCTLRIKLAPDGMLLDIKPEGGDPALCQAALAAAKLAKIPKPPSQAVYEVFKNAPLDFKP
Pal (Escherichia coli), sequence (P0A912 22-173): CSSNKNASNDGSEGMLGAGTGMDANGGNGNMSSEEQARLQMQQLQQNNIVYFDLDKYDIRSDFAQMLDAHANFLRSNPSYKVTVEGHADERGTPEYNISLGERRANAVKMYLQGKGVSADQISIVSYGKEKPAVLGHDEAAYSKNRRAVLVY

N#CC(C#N)=NNc1cccc(Cl)c1 [CCCP]
effect on FRAP recovery ([1]; CCCP 0.1 mM): measurable effect

CC[C@H](C)[C@H](NC(=O)[C@@H](NC(=O)[C@H](CC(C)C)NC(=O)[C@@H]1CCCN1C(=O)[C@H](CC(=O)O)NC(=O)[C@H](C)N)C(C)C)C(=O)N[C@@H](CO)C(=O)N[C@@H](CO)C(=O)NCC(=O)N[C@@H](CC(N)=O)C(=O)N[C@@H](CC(=O)O)C(=O)N[C@@H](CCCNC(=N)N)C(=O)N[C@@H](CCCCNC(=S)Nc1ccc2c(c1)C(=O)OC21c2ccc(O)cc2Oc2cc(O)ccc21)C(N)=O [P. aeruginosa TolB22-33] (H-ADPLVISSGNDRK(FITC)-NH2; N-terminus and C-terminus assumed)
koff [2]: 0.9 s⁻¹ | improvement of TolB binding on deletion of the TolA helix [3]: three-fold | koff [4]: 1.4 s⁻¹ | kon relative to wild-type complex ([4]; helix truncation versus wild-type TolA): three-fold faster

[N-]=[N+]=[N-].[Na+] [sodium azide]
effect on FRAP recovery ([1]; sodium azide 50 µg/µl): measurable effect

ADPLVISSGNDRA-NH2 [TolB22-34]
TolA peaks perturbed by TolB peptide binding [5]: > 80%

E. coli TolA C-terminal domain
Kd [6]: 42 µM

TolA224-344 (P. aeruginosa, lacking C-terminal α-helix)
Kd [7]: 86 µM

TolB (from UniProt P0A855)
Kd [8]: 30 nM | Kd [9]: 40 µM

TolB I25A, I27A
divisome recruitment of TolA-GFP (intensity distribution, ring diameter) [10]: no significant difference

ADPLVISSGNDRAK(FITC) [P. aeruginosa TolB^22–34 fluorescein isothiocyanate (FITC)]
Kd [11]: 250 µM

ADPLVISSGNDRA-NH2 [P. aeruginosa TolB^22–34 peptide (the N-terminus of secreted TolB; the TolA box)]
Kd [12]: 220 µM
